Results published in patent US10556884B2, “Pesticidally active heterocyclic derivatives with sulphur containing substituents” (SYNGENTA PARTICIPATIONS AG, priority 2015, dated 2020).

What was measured:
Format in all cases: in vivo
[1] = tested on: Frankliniella occidentalis (Western Flower Thrips); assay: Frankliniella occidentalis feeding/contact activity, sunflower leaf discs; details: foliar, 168 h, application rate of 200 ppm, population of mixed ages, 7 days after infestation
Experimental: Example B4: Frankliniella occidentalis (Western Flower Thrips): Feeding/Contact Activity
(§1) Sunflower leaf discs were placed on agar in 24-well microtiter plates and sprayed with aqueous test solutions prepared from 10′000 DMSO stock solutions. After drying the leaf discs were infested with a Frankliniella population of mixed ages. The samples were assessed for mortality 7 days after infestation.

[2] = tested on: Myzus persicae (Green Peach Aphid); assay: Myzus persicae feeding/contact activity, sunflower leaf discs; details: foliar, 144 h, application rate of 200 ppm, feeding/contact, population of mixed ages, 6 days after infestation, read-out: mortality
Experimental: Example B5: Myzus persicae (Green Peach Aphid): Feeding/Contact Activity
Sunflower leaf discs were placed onto agar in a 24-well microtiter plate and sprayed with aqueous test solutions prepared from 10′000 ppm DMSO stock solutions. After drying, the leaf discs were infested with an aphid population of mixed ages. The samples were assessed for mortality 6 days after infestation.

[3] = tested on: Diabrotica Balteata (Corn Root Worm); assay: Diabrotica balteata L2 larvae on maize sprouts; details: 96 h, application rate of 200 ppm, L2 larvae, 4 days after infestation, read-out: effect in at least one of the two categories (mortality or growth inhibition)
Experimental: Example B2: Diabrotica Balteata (Corn Root Worm)
Maize sprouts placed onto an agar layer in 24-well microtiter plates were treated with aqueous test solutions prepared from 10′000 ppm DMSO stock solutions by spraying. After drying, the plates were infested with L2 larvae (6 to 10 per well). The samples were assessed for mortality and growth inhibition in comparison to untreated samples 4 days after infestation.

[4] = tested on: Myzus persicae (Green Peach Aphid); assay: Myzus persicae systemic activity, pea seedlings; details: 144 h, test rate of 24 ppm, 6 days after placing seedlings into test solutions
[5] = tested on: Euschistus heros (Neotropical Brown Stink Bug); assay: Euschistus heros N2 nymphs on soybean leaves; details: 120 h, application rate of 200 ppm, 5 days after infestation, read-out: effect in at least one of the two categories (mortality or growth inhibition)
[6] = tested on: Plutella xylostella (Diamond Back Moth); assay: Plutella xylostella L2 larvae on artificial diet; details: 120 h, application rate of 200 ppm, L2 larvae, 5 days after infestation, read-out: effect in at least one of the two categories (mortality or growth inhibition)
Experimental: Example B7: Plutella xylostella (Diamond Back Moth)
24-well microtiter plates with artificial diet were treated with aqueous test solutions prepared from 10′000 ppm DMSO stock solutions by pipetting. After drying, the plates were infested with L2 larvae (10 to 15 per well). The samples were assessed for mortality and growth inhibition in comparison to untreated samples 5 days after infestation.

[7] = tested on: Spodoptera littoralis (Egyqptian Cotton Leaf Worm); assay: Spodoptera littoralis L1 larvae on sprayed cotton leaf discs; details: foliar, 72 h, application rate of 200 ppm, L1 larvae, 3 days after infestation, read-out: control (mortality, anti-feeding effect, growth inhibition)
Experimental: Example B8: Spodoptera littoralis (Egyqptian Cotton Leaf Worm)
Cotton leaf discs were placed onto agar in 24-well microtiter plates and sprayed with aqueous test solutions prepared from 10′000 ppm DMSO stock solutions. After drying the leaf discs were infested with five L1 larvae. The samples were assessed for mortality, anti-feeding effect, and growth inhibition in comparison to untreated samples 3 days after infestation. Control of Spodoptera littoralis by a test sample is given when at least one of the categories mortality, anti-feedant effect, and growth inhibition is higher than the untreated sample.

[8] = tested on: Tetranychus urticae (Two-Spotted Spider Mite); assay: Tetranychus urticae feeding/contact activity, bean leaf discs; details: foliar, 192 h, application rate of 200 ppm, mixed population (mobile stages), 8 days after infestation
Experimental: Example B10: Tetranychus urticae (Two-Spotted Spider Mite): Feeding/Contact Activity
Bean leaf discs on agar in 24-well microtiter plates were sprayed with aqueous test solutions prepared from 10′000 ppm DMSO stock solutions. After drying the leaf discs were infested with a mite population of mixed ages. The samples were assessed for mortality on mixed population (mobile stages) 8 days after infestation.

[9] = tested on: Bemisia tabaci (Cotton White Fly); assay: Bemisia tabaci feeding/contact activity, cotton leaf discs; details: foliar, 144 h, application rate of 200 ppm, adult white flies, 6 days after incubation
Experimental: Example B1: Bemisia tabaci (Cotton White Fly): Feeding/Contact Activity
Cotton leaf discs were placed on agar in 24-well microtiter plates and sprayed with aqueous test solutions prepared from 10′000 ppm DMSO stock solutions. After drying the leaf discs were infested with adult white flies. The samples were checked for mortality 6 days after incubation.

[10] = tested on: Spodoptera littoralis (Egyqptian Cotton Leaf Worm); assay: Spodoptera littoralis, uptake by lettuce roots from agar; details: 144 h, test rate of 12.5 ppm, 6 days after infestation, read-out: effect in at least one of the three categories (mortality, anti-feeding, or growth inhibition)
From the text: Example B9: Spodoptera littoralis (Egyqptian Cotton Leaf Worm)
Test compounds were applied by pipette from 10′000 ppm DMSO stock solutions into 24-well plates and mixed with agar. Lettuce seeds were placed onto the agar and the multi well plate was closed by another plate which contained also agar. After 7 days the compound was absorbed by the roots and the lettuce grew into the lid plate. The lettuce leaves were then cut off into the lid plate. Spodoptera eggs were pipetted through a plastic stencil onto a humid gel blotting paper and the lid plate was closed with it. The samples were assessed for mortality, anti-feedant effect and growth inhibition in comparison to untreated samples 6 days after infestation.

[11] = tested on: Thrips tabaci (Onion Thrips); assay: Thrips tabaci feeding/contact activity, sunflower leaf discs; details: foliar, 144 h, application rate of 200 ppm, population of mixed ages, 6 days after infestation
Experimental: Example B11: Thrips tabaci (Onion Thrips) Feeding/Contact Activity
as §1, with “10′000 ppm” for “10′000”, “thrips” for “Frankliniella”, “6” for “7”

CCS(=O)(=O)c1cc(NC(=O)C2CC2)cnc1-c1nnc(-c2cc(C(F)(F)F)ccn2)n1C [A2, N-[5-ethylsulfonyl-6-[4-methyl-5-[4-(trifluoromethyl)-2-pyridyl]-1,2,4-triazol-3-yl]-3-pyridyl]cyclopropanecarboxamide]
≥ 80%: mortality at 200 ppm [1] | mortality at 200 ppm [2] | percent effect (mortality or growth inhibition) at 200 ppm [3] | mortality at 24 ppm [4]

CCS(=O)(=O)c1ccc(NC(=O)C2CC2)nc1-c1nnc(-c2cc(C(F)(F)F)ccn2)n1C [A6, N-[5-ethylsulfonyl-6-[4-methyl-5-[4-(trifluoromethyl)-2-pyridyl]-1,2,4-triazol-3-yl]-2-pyridyl]cyclopropanecarboxamide]
≥ 80%: mortality at 200 ppm [1] | mortality at 200 ppm [2] | mortality at 24 ppm [4]

CCS(=O)(=O)c1cc(N(C)C(=O)C2CC2)cnc1-c1nnc(-c2cc(C(F)(F)F)ccn2)n1C [A7, N-[5-ethylsulfonyl-6-[4-methyl-5-[4-(trifluoromethyl)-2-pyridyl]-1,2,4-triazol-3-yl]-3-pyridyl]-N-methyl-cyclopropanecarboxamide]
≥ 80%: percent effect (mortality or growth inhibition) at 200 ppm [5] | mortality at 200 ppm [1] | mortality at 200 ppm [2] | mortality at 24 ppm [4] | percent effect (mortality or growth inhibition) at 200 ppm [6]

CCS(=O)(=O)c1cc(NC2CC2)cnc1-c1nnc(-c2cc(C(F)(F)F)ccn2)n1C [A9, N-cyclopropyl-5-ethylsulfonyl-6-[4-methyl-5-[4-(trifluoromethyl)-2-pyridyl]-1,2,4-triazol-3-yl]pyridin-3-amine]
≥ 80%: percent effect (mortality or growth inhibition) at 200 ppm [5] | mortality at 200 ppm [2] | mortality at 200 ppm [7] | mortality at 24 ppm [4] | mortality at 200 ppm [8]

CCS(=O)(=O)c1ccc(C(=O)N(C)C2CC2)nc1-c1nnc(-c2cc(C(F)(F)F)ccn2)n1C [A17, N-cyclopropyl-5-ethylsulfonyl-N-methyl-6-[4-methyl-5-[4-(trifluoromethyl)-2-pyridyl]-1,2,4-triazol-3-yl]pyridine-2-carboxamide]
≥ 80%: mortality at 200 ppm [2] | mortality at 200 ppm [9] | mortality at 24 ppm [4]

CCS(=O)(=O)c1cc(C(=O)NC2CC2)cnc1-c1nnc(-c2cc(C(F)(F)F)ccn2)n1C [A18, N-cyclopropyl-5-ethylsulfonyl-6-[4-methyl-5-[4-(trifluoromethyl)-2-pyridyl]-1,2,4-triazol-3-yl]pyridine-3-carboxamide]
≥ 80%: mortality at 24 ppm [4] | mortality at 200 ppm [8]

CCS(=O)(=O)c1cc(C(=O)NCC#N)cnc1-c1nnc(-c2cc(C(F)(F)F)ccn2)n1C [A26, N-(cyanomethyl)-5-ethylsulfonyl-6-[4-methyl-5-[4-(trifluoromethyl)-2-pyridyl]-1,2,4-triazol-3-yl]pyridine-3-carboxamide]
≥ 80%: mortality at 200 ppm [2] | mortality at 24 ppm [4] | mortality at 200 ppm [8]

CCS(=O)(=O)c1cc(N(C)N)cnc1-c1nnc(-c2cc(C(F)(F)F)ccn2)n1C [A30, 1-[5-ethylsulfonyl-6-[4-methyl-5-[4-(trifluoromethyl)-2-pyridyl]-1,2,4-triazol-3-yl]-3-pyridyl]-1-methyl-hydrazine]
≥ 80%: percent effect (mortality or growth inhibition) at 200 ppm [5] | mortality at 200 ppm [2]

CCS(=O)(=O)c1ccc(NCC(F)(F)F)nc1-c1nnc(-c2cc(C(F)(F)F)ccn2)n1C [A32, 5-ethylsulfonyl-6-[4-methyl-5-[4-(trifluoromethyl)-2-pyridyl]-1,2,4-triazol-3-yl]-N-(2,2,2-trifluoroethyl)pyridin-2-amine]
≥ 80%: mortality at 200 ppm [8]

CCS(=O)(=O)c1ccc(C(=O)O)nc1-c1nnc(-c2cc(C(F)(F)F)ccn2)n1C [A34, 5-ethylsulfonyl-6-[4-methyl-5-[4-(trifluoromethyl)-2-pyridyl]-1,2,4-triazol-3-yl]pyridine-2-carboxylic Acid]
≥ 80%: percent effect (mortality, anti-feeding or growth inhibition) at 12.5 ppm [10]

CCS(=O)(=O)c1ccc(N)nc1-c1nnc(-c2cc(C(F)(F)F)ccn2)n1C [A36, 5-ethylsulfonyl-6-[4-methyl-5-[4-(trifluoromethyl)-2-pyridyl]-1,2,4-triazol-3-yl]pyridin-2-amine]
≥ 80%: percent effect (mortality or growth inhibition) at 200 ppm [5] | mortality at 200 ppm [2] | mortality at 24 ppm [4]

CCS(=O)(=O)c1ccc(NC(=O)OC(C)(C)C)nc1-c1nnc(-c2cc(C(F)(F)F)ccn2)n1C [A37, tert-butyl N-[5-ethylsulfonyl-6-[4-methyl-5-[4-(trifluoromethyl)-2-pyridyl]-1,2,4-triazol-3-yl]-2-pyridyl]carbamate]
≥ 80%: mortality at 200 ppm [1] | mortality at 200 ppm [7] | mortality at 24 ppm [4] | percent effect (mortality or growth inhibition) at 200 ppm [6]

CCS(=O)(=O)c1cc(Cl)c(N)nc1-c1nnc(-c2cc(C(F)(F)F)ccn2)n1C [A42, 3-chloro-5-ethylsulfonyl-6-[4-methyl-5-[4-(trifluoromethyl)-2-pyridyl]-1,2,4-triazol-3-yl]pyridin-2-amine]
≥ 80%: mortality at 200 ppm [2] | mortality at 200 ppm [9] | percent effect (mortality or growth inhibition) at 200 ppm [3] | mortality at 200 ppm [7] | mortality at 24 ppm [4] | percent effect (mortality or growth inhibition) at 200 ppm [6] | mortality at 200 ppm [11]

CCS(=O)(=O)c1cc(Br)c(N)nc1-c1nnc(-c2cc(C(F)(F)F)ccn2)n1C [A43]
≥ 80%: mortality at 200 ppm [2] | mortality at 200 ppm [9] | percent effect (mortality or growth inhibition) at 200 ppm [3] | mortality at 200 ppm [7] | mortality at 24 ppm [4] | percent effect (mortality or growth inhibition) at 200 ppm [6] | mortality at 200 ppm [11]

CCS(=O)(=O)c1cc(N)c(Br)nc1-c1nnc(-c2cc(C(F)(F)F)ccn2)n1C [A45]
≥ 80%: percent effect (mortality, anti-feeding or growth inhibition) at 12.5 ppm [10] | percent effect (mortality or growth inhibition) at 200 ppm [3] | mortality at 200 ppm [7] | percent effect (mortality or growth inhibition) at 200 ppm [6]
